From PMC8569811, “The Nonphysiological Reductant Sodium Dithionite and [FeFe] Hydrogenase: Influence on the Enzyme Mechanism” (Journal of the American Chemical Society, 2021) come the findings set out here.

SMILES strings stand for the structures.

The target in assay [1] is T1, CpHydA1 ([FeFe] hydrogenase HydA1) (Clostridium pasteurianum, UniProt P29166).
T1 sequence (P29166 1-574): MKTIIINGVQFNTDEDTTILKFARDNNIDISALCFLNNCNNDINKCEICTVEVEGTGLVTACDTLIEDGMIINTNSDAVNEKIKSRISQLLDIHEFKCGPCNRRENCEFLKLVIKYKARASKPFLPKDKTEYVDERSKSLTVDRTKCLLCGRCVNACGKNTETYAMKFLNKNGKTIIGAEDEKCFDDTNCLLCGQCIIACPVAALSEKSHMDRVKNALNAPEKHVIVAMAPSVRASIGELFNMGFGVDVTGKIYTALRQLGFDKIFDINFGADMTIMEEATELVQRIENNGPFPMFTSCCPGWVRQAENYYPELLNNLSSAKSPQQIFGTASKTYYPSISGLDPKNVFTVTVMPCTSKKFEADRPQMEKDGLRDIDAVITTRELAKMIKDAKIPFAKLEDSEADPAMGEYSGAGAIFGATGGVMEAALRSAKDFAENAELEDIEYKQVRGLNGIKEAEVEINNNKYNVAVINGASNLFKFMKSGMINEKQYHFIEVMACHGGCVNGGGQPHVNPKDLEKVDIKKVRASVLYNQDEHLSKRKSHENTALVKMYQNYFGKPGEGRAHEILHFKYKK
Nature of the assay: IR spectroscopy, conversion to HoxH with Na2SO3 at low pH. The assay is classed as binding.

The target in assay [2] is T2, CrHydA1 ([FeFe] hydrogenase) (Chlamydomonas reinhardtii, UniProt Q9FYU1).
T2 construct: gene hyd1; CrHydA1^PDT (chemical variant with propane dithiolate bridging ligand in [2Fe]H)
T2 sequence (Q9FYU1 57-497): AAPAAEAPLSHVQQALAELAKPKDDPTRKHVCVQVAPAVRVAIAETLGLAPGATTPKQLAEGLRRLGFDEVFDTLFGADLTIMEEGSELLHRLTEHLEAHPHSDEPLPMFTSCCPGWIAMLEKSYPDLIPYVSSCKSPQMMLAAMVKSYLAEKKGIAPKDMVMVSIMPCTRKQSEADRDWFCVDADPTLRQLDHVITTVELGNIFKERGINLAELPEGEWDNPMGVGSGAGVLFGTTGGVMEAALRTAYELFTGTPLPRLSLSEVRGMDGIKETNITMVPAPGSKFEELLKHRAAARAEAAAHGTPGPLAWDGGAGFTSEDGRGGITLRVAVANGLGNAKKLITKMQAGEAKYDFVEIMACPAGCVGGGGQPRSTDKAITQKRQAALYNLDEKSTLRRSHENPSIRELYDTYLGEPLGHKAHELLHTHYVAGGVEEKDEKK
As to the kind of experiment: IR titration with Na2SO3 (source of SO2) at pH […] and […] fit. The assay is classed as binding.

Consider `O=S=O` [SO2], for which, in assay [1], the “IR spectroscopy, conversion to HoxH with Na2SO3 at low pH” value is “SO2 binding caused formation of HoxH not only with CrHydA1 but also with the bacterial enzymes CpHydA1 and DdHydAB”. Besides, the Kd in assay [2] is ~500 nM.
